Assay results as given in patent publication US9610262B2, “Therapeutic and/or preventive agent comprising 1-indansulfamide derivative for pain” (Eisai R&D Management Co., Ltd., priority 2013, dated 2017).

How the values were obtained:
[1] = tested on: acute pain (mice hot plate, 53° C.); experiment: Mice hot-plate test; format: in vivo, Male C57BL/6NCrlCrlj mice; conditions: oral, 60 minutes before the hot-plate test; FIG. 1
Procedure: The mice hot-plate test was performed to determine the efficacy on acute pain. In this model, latency to the first pain response is recorded as a measure of pain sensitivity (Malmberg, A. and Yaksh, T., Pain. 1995, 60: 83-90).
Male C57BL/6NCrlCrlj mice (Charles River Japan) aged 6 weeks (n=4 to 10, for each treatment) were used for this experiment. The hot plate (model MK 350, Muromachi Kikai Co. Ltd) was set to 53° C. For oral administration, the test compound was suspended in an aqueous solution containing 0.45% methyl cellulose/4.5% Cremophor/10% dimethyl sulfoxide to prepare a suspension having a dosing volume of 10 ml/kg and the suspension was administered orally 60 minutes before the hot-plate test Morphine was used as a positive control and the mixed solvent (vehicle) alone not containing the test compound was used as a negative control.
Each mouse was placed on the hot plate and a stopwatch was immediately started for measurement. The latency time to the first pain response (paw lick or escape jump) was measured. The cut-off time was set to 30 seconds in order to avoid overdamage of the tissues, and the mouse was immediately removed from the hot-plate after measurement. All data are expressed as the mean±SEM. All statistical analyses were performed using Holm-Sidak's multiple comparisons test. The p-values less than 0.05 were judged as statistically significant in this experiment.

[2] = tested on: tactile allodynia in rat chronic constriction injury (CCI) model; experiment: Rat chronic constriction injury (CCI) model, von Frey filament test; format: in vivo, Male SD rats; conditions: for 50% Response threshold: mean±SEM; for response threshold against mechanical stimulation: pre-administration, 10 and 50 mg/kg oral
From the text: The rat chronic constriction injury (CCI) model was used to determine the efficacy on the chronic pain. In this model, tactile allodynia, a typical symptom in chronic pain patients, can be evaluated by using a response threshold against mechanical stimulation by von Frey filaments as an index (Bennett G. J. and Xie, Y. K., (Pain 1988; 33: p 87-107).
Male SD rats (Charles River Japan) aged 6 weeks (n=4, each treatment performed twice in total) were used for this experiment. The rat chronic constriction injury (CCI) model was prepared in accordance with the method of Bennett and Xie above.
The common sciatic nerve was exposed at the level of the middle of the thigh by blunt dissection through biceps femoris under isoflurane anesthesia. Four ligatures (4-0 silk) were tied loosely around the sciatic nerve at about 1 mm spacing. The biceps femoris and the skin were sutured.
On 14 days after surgery, efficacy of the compounds on tactile allodynia was evaluated. The animals were housed in wire mesh bottom cages for 30 minutes prior to the start of the experiment for acclimation. The test compound was suspended in an aqueous solution containing 0.45% methyl cellulose/4.5% Cremophor/10% dimethyl sulfoxide to prepare a suspension having a dosing volume of 10 ml/kg and the suspension was administered orally. The above mixed solvent (vehicle) alone not containing the test compound was used as a negative control. The response threshold against mechanical stimulation was measured by the application of von Frey filaments at bending forces (0.4, 0.6, 1, 2, 4, 6, 8, and 15 g) to the plantar surface of the hind paw in accordance with Chaplan et al. (J Neuroscience Methods 1994; 53(1): p. 55-63). The von Frey filaments were pushed to the paw for 6 seconds to evaluate escape response. The 50% response threshold was determined in accordance with the up-down method of Dixon (Annual Review of Pharmacology and Toxicology 1980; 20: p. 441-462). The measurement was performed before administration and at 30, 90 and 180 minutes after administration. All data are expressed as the mean±SEM. All statistical analyses were performed using Two way Repeated Measures ANOVA followed by Dunnett's test. The p-values less than 0.05 were judged as statistically significant in this experiment.

[3] = tested on: acute persistent pain (formalin-injected paw); experiment: Formalin test (second phase); format: in vivo, Male CD1 (ICR) mice; conditions: oral pre-administration; 15 to 45 minutes after injection of 2.5% formalin; FIG. 2
Procedure: The compounds were examined in the second phase of the formalin test to determine an analgesic effect on acute persistent pain. In this model, the duration of responses induced by pain (behavior such as licking or biting of the formalin-injected paw) is used as an evaluation index (Dubuisson and Dennis (Pain, 4: p. 161-174 (1977)). Male CD1 (ICR) mice (Charles River Japan) aged 5 to 6 weeks (n=6 to 16, for each treatment) were used for the experiment. The responses induced by pain were measured by an automated behavioral analysis apparatus (MicroAct (Neuroscience, Inc.)) according to detection of changes in magnetic field. Before the day prior to evaluation of pain response, a small magnet for the detection of changes in magnetic field was implanted in the left hindlimb instep under isoflurane anesthesia. For oral administration, the test compound was suspended in a solution containing 0.45% methyl cellulose/4.5% Ceremophor/10% dimethyl sulfoxide to prepare a suspension having a dosing volume of 10 ml/kg and the suspension was administered orally. The mixed solvent as above (vehicle) alone not containing the test compound was used as a negative control. Gabapentin was intraperitoneally administered as a positive control. A 2.5% formalin solution was prepared by diluting Formaldehyde Solution (Wako Pure Chemical Industries) with physiological saline (Otsuka Pharmaceutical). At 40 minutes to an hour after administration of the test compound or the positive control, 10 μl of the 2.5% formalin solution was subcutaneously injected in the left hindlimb pad. The mouse was placed in an observation chamber immediately after administration for measurement. For evaluation of an analgesic effect in the second phase, the duration of behaviors such as licking or biting of the paw was measured by the automated behavioral analysis apparatus from 15 to 45 minutes after injection of the 2.5% formalin solution. All data are expressed as the mean±SEM. All statistical analyses were performed using the Holm-Sidak's multiple comparisons test. The p-values less than 0.05 were judged as statistically significant in this experiment.

[4] = 10 mg/kg oral, 30 min after administration
[5] = 10 mg/kg oral, 90 min after administration
[6] = 10 mg/kg oral, 180 min after administration
[7] = 10 mg/kg oral, Pre (before administration), 14 days after surgery
[8] = 50 mg/kg oral, 30 min after administration
[9] = 50 mg/kg oral, 90 min after administration
[10] = 50 mg/kg oral, 180 min after administration
[11] = 50 mg/kg oral, Pre (before administration), 14 days after surgery

SMILES	latency time to the first pain response [1]	50% Response threshold [2, 4] [g]	50% Response threshold [2, 5] [g]	50% Response threshold [2, 6] [g]	50% Response threshold [2, 7] [g]	analgesic effect on tactile allodynia in CCI model ([2]; 50 mg/kg oral)	50% Response threshold [2, 8] [g]	50% Response threshold [2, 9] [g]	50% Response threshold [2, 10] [g]	50% Response threshold [2, 11] [g]	response threshold against mechanical stimulation [2]	duration of the pain response [3]
NS(=O)(=O)NC1c2c(Cl)cc(F)cc2CC1(F)F (single isomer, unassigned; (-)) [Compound 2, (−)-N-(7-chloro-2,2,5-trifluoro-2,3-dihydro-1H-inden-1-yl)sulfamide]	significantly increased	3.2 ± 0.4	4.1 ± 0.5	3.1 ± 0.2	2.4 ± 0.2	statistically significant analgesic effect	4.2 ± 0.6	7.6 ± 1.1	4.0 ± 0.5	2.3 ± 0.2	increased in an approximately dose dependent manner	statistically significantly shortened
NS(=O)(=O)N[C@H]1c2c(F)cc(F)cc2CC1(F)F [Compound 1, N-[(1S)-2,2,5,7-tetrafluoro-2,3-dihydro-1H-inden-1-yl]sulfamide]	significantly increased	3.2 ± 0.3	4.4 ± 0.5	3.1 ± 0.3	2.4 ± 0.2	statistically significant analgesic effect	6.0 ± 0.7	11.4 ± 1.4	5.3 ± 0.6	2.3 ± 0.2	increased in an approximately dose dependent manner	statistically significantly shortened
Cc1cccc2c1[C@H](NS(N)(=O)=O)C(F)(F)C2 [Compound 3, N-[(1S)-2,2-difluoro-7-methyl-2,3-dihydro-1H-inden-1-yl]sulfamide]	significantly increased	2.6 ± 0.4	3.5 ± 0.7	3.9 ± 0.4	2.4 ± 0.2	–	3.1 ± 0.4	3.2 ± 0.5	4.0 ± 0.4	2.4 ± 0.2	–	statistically significantly shortened
Cc1cc(F)cc2c1[C@H](NS(N)(=O)=O)C(F)(F)C2 [Compound 4, N-[(1S)-2,2,5-Trifluoro-7-methyl-2,3-dihydro-1H-inden-1-yl]sulfamide]	significantly increased	3.6 ± 0.4	5.2 ± 1.5	5.2 ± 1.0	2.4 ± 0.2	–	4.3 ± 0.9	6.9 ± 1.5	5.6 ± 1.6	2.4 ± 0.2	–	statistically significantly shortened
NS(=O)(=O)NCc1csc2ccccc12 [compound 1, N-(benzo[b]thiophen-3-ylmethyl)sulfamide, reference compound]	–	2.7 ± 0.4	3.4 ± 0.2	3.4 ± 0.3	2.5 ± 0.2	–	3.5 ± 0.3	3.9 ± 0.3	2.8 ± 0.2	2.5 ± 0.2	–	–
NS(=O)(=O)NC[C@H]1COc2cc(Cl)ccc2O1 [compound 2, (2S)-(−)-N-(6-chloro-2,3-dihydro-benzo[1,4]dioxin-2-ylmethyl)-sulfamide, reference compound]	–	2.9 ± 0.4	3.2 ± 0.4	3.0 ± 0.2	2.6 ± 0.2	–	3.5 ± 0.3	4.5 ± 0.4	3.6 ± 0.6	2.6 ± 0.2	–	–
